{"source": "patent US6399833B1", "about": "“Process for producing aryl vinyl sulfone solution and use thereof” (Sumitomo Chemical Company, Limited, priority 1998, dated 2002)", "key": {"[1]": {"assay": "Stability of phenyl vinyl sulfone solutions in various solvents, thermostatic bath at 40° C., analysed by gas chromatography", "format": "physicochemical", "details": "for Retention in DMF solution: N,N-dimethylformamide solution (30%); for Retention in ethanol solution: ethanol solution (10%); for Retention in MIK solution: methyl isobutyl ketone solution (30%); for Retention in MTBE solution: methyl t-butyl ether solution (10%); for Retention in toluene solution: toluene solution (30%)", "method": "About 35 ml of a phenyl vinyl sulfone solution and a chip of stainless steel (20 mm×25 mm×2 mm) (assuming the storage in a stainless steel vessel) were put in a glass sample tube of 50 ml in volume, which was purged with nitrogen gas and then sealed with a tight stopper, followed by stability tests in a thermostatic bath at 40° C. The results of retention when a toluene solution (concentration, 30%), a methyl isobutyl ketone solution (concentration, 30%), and a methyl t-butyl ether solution (concentration, 10%) were used as the phenyl vinyl sulfone solutions are shown in Table 2.\nThe concentration of phenyl vinyl sulfone in each solution was analyzed by gas chromatography. In the table, MIK refers to methyl isobutyl ketone; and MTBE, methyl t-butyl ether.\nStability tests were carried out in the same manner as described in Reference Example 3, except that an ethanol solution (concentration, 10%) and an N,N-dimethylformamide solution (concentration, 30%) were used as the phenyl vinyl sulfone solutions. In the table, DMF refers to N,N-dimethylformamide."}, "[2]": {"details": "Aldrich Material Safety Data; cited from earlier work"}, "[3]": {"assay": "Stability of phenyl vinyl sulfone/acetonitrile solution, thermostatic bath at 40° C., analysed by gas chromatography", "format": "physicochemical", "details": "30% acetonitrile solution, stainless steel chip, nitrogen", "method": "About 70 ml of a phenyl vinyl sulfone/acetonitrile solution (phenyl vinyl sulfone concentration, 30%) and a chip of stainless steel (20 mm×25 mm×2 mm) (assuming the storage in a stainless steel vessel) were put in a glass sample tube of 100 ml in volume, which was purged with nitrogen gas and then sealed with a tight stopper, followed by stability tests in a thermostatic bath at 40° C. The concentration of phenyl vinyl sulfone in the phenyl vinyl sulfone/acetonitrile solution was analyzed by gas chromatography."}}, "data": [{"compound": "C=CS(=O)(=O)c1ccccc1", "note": "[phenyl vinyl sulfone]", "values": [{"measurement": "Appearance of solution on storage", "setting": "[1]; DMF solution (30%), with the lapse of storage days", "result": "yellow coloring was observed"}, {"measurement": "Retention in DMF solution", "setting": "[1]; 0 day", "result": 100, "unit": "%"}, {"measurement": "Retention in DMF solution", "setting": "[1]; 15 days", "result": 99.0, "unit": "%"}, {"measurement": "Retention in ethanol solution", "setting": "[1]; 0 day", "result": 100, "unit": "%"}, {"measurement": "Retention in ethanol solution", "setting": "[1]; 15 days", "result": 83.8, "unit": "%"}, {"measurement": "Retention in MIK solution", "setting": "[1]; 0 day", "result": 100, "unit": "%"}, {"measurement": "Retention in MIK solution", "setting": "[1]; 15 days", "result": 99.5, "unit": "%"}, {"measurement": "Retention in MTBE solution", "setting": "[1]; 0 day", "result": 100, "unit": "%"}, {"measurement": "Retention in MTBE solution", "setting": "[1]; 15 days", "result": 100, "unit": "%"}, {"measurement": "Retention in toluene solution", "setting": "[1]; 0 day", "result": 100, "unit": "%"}, {"measurement": "Retention in toluene solution", "setting": "[1]; 15 days", "result": 100, "unit": "%"}, {"measurement": "Irritation", "setting": "[2]", "result": "exhibit irritation"}, {"measurement": "Retention", "setting": "[3]; 0 day", "result": 100, "unit": "%"}, {"measurement": "Retention", "setting": "[3]; 30 days", "result": 100, "unit": "%"}, {"measurement": "Retention", "setting": "[3]; 60 days", "result": 99.9, "unit": "%"}, {"measurement": "Retention", "setting": "[3]; 90 days", "result": 99.4, "unit": "%"}]}]}
